Assay results published in patent US11913884B2, “Visible light-activated dyes and methods of use thereof” (William Marsh Rice University, priority 2019, dated 2024).
“And” between values parts separate entries of the source, which are not always exact repeats. Equal values may be shown once. Where a name gives a salt, the structure may show the parent alone. Read-outs that look alike come from different tables or passages of the source.

What was measured:
[1] = in dichloromethane; cited from earlier work
[2] = UV-vis absorption and fluorescence spectra of thio-caged and uncaged fluorophores; assay type: physicochemical; settings: for λem / λabs: DMSO (50 μM); for λabs: absorption maxima
Method: Encouraged by the excellent photoactivation properties of SNile Red, Lawesson's reagent was employed to introduce thiocarbonyl moieties into several different fluorophores, such as phthalimide (PI), coumarin (Cou) and acridone (ACD), obtaining yields ranging from 20-80% (FIG. 1). Next, characterization of the spectroscopic and photochemical properties of these thiocaged fluorophores and their oxidized products using UV-vis and fluorescence spectroscopies was performed (Table 1). […] Double thiocarbonyl substitution on 4-dimethylaminophthalimide (4-DMAP, FIG. 1) produced an even larger bathochromic shift of 166 nm. […] It was hypothesized that the red-shift and enhanced absorption seen with thiocarbonyl compounds were due to the reduced energy gap between the HOMO-LUMO in these fluorophores. This is consistent with the computational results discussed below. […] To assess the efficiency of photoactivation for the various thio-caged fluorophores, UV-vis and fluorescence spectra were recorded after different irradiation times (FIGS. 4-8).
(§1) The ^1H NMR spectroscopic measurements were carried out using a Bruker-600 NMR at 600 MHz with tetramethysilane (TMS) as internal reference. Electrospray ionization (ESI) mass spectra were performed on a Bruker MicroToF ESI LC-MS System in positive-ion mode. The steady-state absorption spectra were obtained with a ThermoFisher Evolution 220 UV-Vis spectrophotometer in 1 cm path length quartz cells. Fluorescence spectra were recorded using spectrophotometer (SPEX FluoroLog-3). Quantum yield in DMSO was measured relative to the fluorescence of Rhodamine B (Φ=0.65) in ethanol or quinine sulfate (Φ=0.55) in 0.5 M·L^−1 H2SO4. FT-IR spectrum was taken on a PerkinElmer Spectrum 100 FT-IR Spectrometers. Confocal fluorescent images of living cells were performed using Nikon A1R-si Laser Scanning Confocal Microscope (Japan), equipped with lasers of 405/488/561/638 nm. STORM images were performed on a NSTORM (Nikon, Japan), featuring a CFI Apo TIRF 100× oil objective (NA 1.49) on an inverted Nikon Ti Eclipse microscope with a quad cube filter (Chroma, zt405/488/561/640 m-TRF), piezo stage, and Perfect Focus System (Nikon) for Z-stability. Light source are hand-held UV lamp, BlueView Transilluminator (470 nm centred, Vernier), Prior Lumen200 with 615/30 filter and 850 LED (Mouser Electronics).

[3] = Fluorescence quantum yield determination; assay type: physicochemical; settings: DMSO; reference rhodamine B in ethanol or quinine sulfate in 0.5 M H2SO4
Method: as §1
Quantum yields were measured with Rhodamine B as reference (Φ=0.65) or quinine sulfate (Φ=0.55) in 0.5 M H2SO4. Fluorescence measurements were performed in 1 cm quartz cells with 5 μM samples in DMSO on spectrophotometer (SPEX FluoroLog-3) (slits 5×5). The fluorescence quantum yield, Φ (sample), were calculated according to equation as following:
[formula] Φ: quantum yield; I: integrated emission intensity; OD: optical density at the excitation wavelength; d: refractive index of solvents, dDMSO=1.478; dethanol=1.36; dwater=1.33.

[4] = cited from earlier work
[5] = system: H2B-Halo expressed CHO-K1 cells; assay: Turn-on of 5NP-Halo in cells; assay type: cell-based; settings: 10 μM for 1 h
Text: FIGS. 19A & 19B show turn-on of 5NP-Halo in H2B-Halo expressed CHO-K1 cells.

[6] = Photoactivation (turn-on) of thio-caged fluorophores in solution by light irradiation; assay type: physicochemical; settings: DMSO; footnote d: 615 nm, 0.4 μW cm^−2
Text: To determine whether a minimal one atom sulfur-for-oxygen substitution within fluorophores can lead to fluorescence quenching, thio-caged Nile Red (SNile Red, FIG. 1) was synthesized, in which a carbonyl group was replaced with a thiocarbonyl moiety. Treatment of Nile Red with Lawesson's reagent in refluxing benzene produced the desired SNile Red in a yield of 40%. […] Irradiation of SNile Red with red light (615 nm, 0.4 μW cm-2) led to the regeneration of fluorescent Nile Red in a high yield (FIG. 2A). The absorption maxima of SNile Red at 298, 368 and 652 nm were blue-shifted after desulfuration to 315 and 556 nm, in a good agreement with the absorption spectrum of authentic synthesized Nile Red (FIG. 2B). The A556/A652 value, representing the ratio of the absorbance maxima of Nile Red and SNile Red, increased from 0.25 to 30 after desulfuration reaction (FIG. 2B). Upon irradiation with red light, the fluorescence intensity of the desulfurated material at 626 nm increased 280-fold, accompanied by a change in fluorescence from dark to red (FIG. 2C). To evaluate the proper light source for SNile Red photoactivation, SNile Red was irradiated with either 470 nm, 615 nm, or 850 nm light for different times and fluorescence intensities at 626 nm were recorded. […] To further characterize the photoactivated product of SNile Red, ^1H NMR and ESI-MS spectral changes were measured in the process of photoactivation (FIG. 2A). […] Signals corresponding to phenyl moiety protons at 8.64, 8.62, 7.85, 7.73, 7.36, 7.04, and 6.79 ppm gradually disappeared, and were replaced by new signals appearing at 8.57, 8.13, 7.81, 7.72, 7.63, 6.85, 6.69 and 6.30 ppm, respectively. […] The photoactivated product was also characterized by ESI-mass spectrometric analysis FIG. 3). The observed m/z 319.2 corresponding to Nile Red confirms the photoactivation product of SNile Red is its oxo form. Both dialkylthioketones and diarylthioketones are known to undergo photo-oxidation reaction under oxygen and light to give the corresponding ketones (Coyle, 1985, Corsaro and Pistara, 1998). To investigate the effects of dissolved oxygen and light on the photoactivation of thio-caged fluorophores, the time profile of the fluorescence of SNile Red was measured in the presence or absence of light, or oxygen. […] To study the effect of oxygen during the photoactivation, the inventors prepared an oxygen-free SNile Red solution by bubbling nitrogen gas and irradiated at 615 nm. […] Inspired by the photoactivation mechanism of thioketones, it was hypothesized that singlet oxygen generated by self-sensitization can be the active species to oxidize thiocarbonyl groups within fluorophores (Coyle, 1985 and Corsaro and Pistara, 1998). […] The singlet oxygen quantum yield (DA) was further determined to be 0.36 with considering the absorption correction factor over the 600-630 nm region (Bonacin et al., 2009 and Adarsh et al., 2010) by referring to methylene blue (MB) (ΦΔ,MB=0.57 in dichloromethane; Li et al., 2013).
Encouraged by the excellent photoactivation properties of SNile Red, Lawesson's reagent was employed to introduce thiocarbonyl moieties into several different fluorophores, such as phthalimide (PI), coumarin (Cou) and acridone (ACD), obtaining yields ranging from 20-80% (FIG. 1). Next, characterization of the spectroscopic and photochemical properties of these thiocaged fluorophores and their oxidized products using UV-vis and fluorescence spectroscopies was performed (Table 1). […] Double thiocarbonyl substitution on 4-dimethylaminophthalimide (4-DMAP, FIG. 1) produced an even larger bathochromic shift of 166 nm. […] It was hypothesized that the red-shift and enhanced absorption seen with thiocarbonyl compounds were due to the reduced energy gap between the HOMO-LUMO in these fluorophores. This is consistent with the computational results discussed below. […]

## CN(C)c1ccc2nc3ccc(=[N+](C)C)cc-3sc2c1 [methylene blue]
[1]
  singlet oxygen quantum yield (ΦΔ,MB) of reference: 0.57

## O=c1ccc2ccccc2o1 [Cou, coumarin]
[2]
  λem: 445 nm
[3]
  ø (fluorescence quantum yield): 0.71

## CCN(CC)c1ccc2c(-c3ccccc3C(=O)O)c3ccc(=[N+](CC)CC)cc-3oc2c1.[Cl-] [Rhodamine B]
[4]; in ethanol
  fluorescence quantum yield Φ of reference: 0.65

## O=C(CN1C(=S)c2cccc3c(N4CCCC4)ccc(c23)C1=S)NCCOCCOCCCCCCCl [Dye 5NP-Halo]
[5]
  fluorescence upon photoactivation of treated cells: enhanced fluorescence

## O=c1c2ccccc2[nH]c2ccccc12 [ACD, acridone]
[2]
  λem: 406 nm and 428 nm and 455 nm
  λabs: 361 nm and 379 nm and 398 nm
[3]
  ø (fluorescence quantum yield): 0.64

## S=C1NC(=S)c2ccccc21 [Dye 2SPI]
[2]
  λem: 294 nm
[3]
  ø (fluorescence quantum yield): <0.001
[6]
  Turn-on (x-fold): 30^d x-fold

## C=C[C@H]1C[N@@]2CC[C@H]1C[C@H]2[C@H](O)c1ccnc2ccc(OC)cc12 [quinine sulfate]
[4]; in 0.5 M H2SO4
  fluorescence quantum yield Φ of reference: 0.55

## CN(C)c1ccc2c(c1)C(=S)NC2=S [SDMAP]
[2]
  λem: 447 nm
  λabs: 326 nm and 390 nm and 563 nm
[3]
  ø (fluorescence quantum yield): <0.001
[6]
  Turn-on (x-fold): 1600^d x-fold

## S=c1c2ccccc2[nH]c2ccccc12 [SACD]
[2]
  λem: 409 nm and 427 nm and 463 nm
  λabs: 430 nm and 456 nm
[3]
  ø (fluorescence quantum yield): <0.001
[6]
  Turn-on (x-fold): 180^d x-fold

## CCN(CC)c1ccc2nc3c4ccccc4c(=O)cc-3oc2c1 [Nile Red]
[2]
  λem: 626 nm
[3]
  ø (fluorescence quantum yield): 0.46

## CN(C)c1ccc2c(c1)C(=O)NC2=O [DMAP, 4-dimethylaminophthalimide]
[2]
  λem: 505 nm
  λabs: 267 nm and 325 nm and 397 nm
[2]; double thiocarbonyl substitution versus carbonyl compound
  bathochromic shift of absorption maximum: 166 nm
[3]
  ø (fluorescence quantum yield): 0.09

## O=C1NC(=O)c2ccccc21 [OPI, phthalimide]
[2]
  λem: 347 nm
[3]
  ø (fluorescence quantum yield): 0.001
